The test system of assay [1] is T-cell. The assay is described as follows: CD25 cell surface staining on T-cells co-stimulated with anti-CD3 and anti-CD28 antibody (Biological Example 2). The format is cell-based, human. The following applies: Homo sapiens, T-cell, fold change over baseline, primary human total T-cells, read-out: CD25 staining Anti-CD3/Anti-CD28 stimulation; for fold induction at 0.3 µM: 0.3 μM Cbl-b inhibitor; for fold induction at 1 µM: 1 μM Cbl-b inhibitor; for fold induction at 4 µM: 4 μM Cbl-b inhibitor. In short, it runs like this: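 No assay protocol given; T-cells stimulated with anti-CD3 alone or anti-CD3 plus anti-CD28, with or without Cbl-b inhibitor. Activation read as IL-2 secretion or CD25 surface staining, expressed as fold over baseline from uninhibited cells […].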

Assay [2] concerns the target Cbl-b (residues 36-427) (Homo sapiens, UniProt Q13191). Put plainly: Cbl-b binding assay (SPR, Biacore T200). The conditions noted are these: 20° C., 1:1 binding model. In short, it runs like this:
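Affinities derived from global 1:1 steady-state or kinetic fits of double-referenced, solvent-corrected SPR data, 20 °C, NeutrAvidin-capture chip. Compound series (top 100 or 50 μM, 8–10 points) injected 50 s, 90–180 s dissociation. Asterisked values used 50 mM instead of 100 mM NaCl and 30 nM Src kinase.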
Background: SPR reads the build-up and loss of mass on a sensor chip optically.

Assay [3] addresses T1, Cbl-b (Homo sapiens, UniProt Q13191). Put plainly: Cbl-b inhibition assay (Cbl-b activity assay, FRET, Biological Example 1; 100 mM NaCl, 60 nM Src kinase). The class given is biochemical. The conditions noted are these: upper bound stated in text lists; read-out: IC50 values in the Cbl-b inhibition assay of Biological Example 1. In short, it runs like this: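 Binding-based Cbl-b activity assay. Src-phosphorylated, N-terminally biotin-Avi-tagged Cbl-b recruits labelled UbcH5B-Ub, and proximity to streptavidin-terbium yields FRET.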

Assay [4] addresses T1, Cbl-b. The assay is described as follows: Cbl-b activity assay (Cbl-b inhibition assay), TR-FRET of Cbl-b interaction with UbcH5B-Ub. The format is biochemical. The following applies: assay buffer with 100 mM NaCl, 60 nM Src kinase; read-out: Cbl-b activity IC50. In short, it runs like this:
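TR-FRET readout of Cbl-b binding to Bodipy-fluorescein N-terminally labeled Ub conjugated to UbcH5B C85K, measured with compound present. After compound incubation, 60 nM Src kinase with 1 mM ATP and 5 mM MgCl2 (final) was added for 1.5 h, then a further 1 h incubation; asterisked values used 50 mM NaCl buffer and 30 nM Src.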
Background: TR-FRET usually uses a lanthanide donor and a delayed reading to cut background.

The structures appear in SMILES notation.

T1 sequence (Q13191 36-427): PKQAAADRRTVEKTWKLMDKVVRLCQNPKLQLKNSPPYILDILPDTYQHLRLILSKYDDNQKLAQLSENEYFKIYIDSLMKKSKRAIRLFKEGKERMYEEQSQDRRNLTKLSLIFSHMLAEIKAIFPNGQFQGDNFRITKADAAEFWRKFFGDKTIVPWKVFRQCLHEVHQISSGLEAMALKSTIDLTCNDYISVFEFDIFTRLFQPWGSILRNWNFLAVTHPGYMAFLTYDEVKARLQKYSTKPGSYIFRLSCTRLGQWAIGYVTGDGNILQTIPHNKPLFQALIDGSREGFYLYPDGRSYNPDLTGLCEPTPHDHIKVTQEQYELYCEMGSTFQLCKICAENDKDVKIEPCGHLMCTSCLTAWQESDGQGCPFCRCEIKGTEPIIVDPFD
Cbl-b (residues 36-427), sequence (Q13191 36-427): as above

What is called Kd is the constant that tells how readily two partners part at equilibrium. A lower Kd goes with tighter binding. Broadly, the IC50 is the concentration that inhibits the measured activity by half. Take `C[C@H](Cc1nncn1C)c1cccc(NC(=O)c2cc(C(=O)N3CC(O)C(F)(F)C3)ccn2)c1` (stereo partly drawn) [Compound 243, 4-(3,3-difluoro-4-hydroxypyrrolidine-1-carbonyl)-N-[3-[(2R)-1-(4-methyl-4H-1,2,4-triazol-3-yl)propan-2-yl]phenyl]pyridine-2-carboxamide]: in assay [1], the fold induction at 0.3 µM is below 1, the fold induction at 1 µM is below 1 and the fold induction at 4 µM is 1.31 to 1.5. For the same compound, in assay [2], the Kd is above 10000 nM. In assay [3], the IC50 was at most 500 nM. In addition, the half-inhibitory concentration (IC50) in assay [4] lay within 301 to 1000 nM.
Turning to `CCn1cnnc1C[C@@H](C)c1cccc(NC(=O)c2cc(C(=O)N3C[C@@H](O)C[C@H]3C)ccn2)c1` [Compound 251, N-(3-((R)-1-(4-ethyl-4H-1,2,4-triazol-3-yl)propan-2-yl)phenyl)-4-((2R,4S)-4-hydroxy-2-methylpyrrolidine-1-carbonyl)picolinamide], in assay [1], the fold induction at 0.3 µM lay in the range of 1.01 to 1.3, the fold induction at 1 µM was in the range of 1.01 to 1.3 and the fold induction at 4 µM lay within 1.01 to 1.3. Moreover, the dissociation constant (Kd) in assay [2] is 1000 to 3000 nM. The concentration for half-maximal inhibition (IC50) in assay [3] was at most 1000 nM. Besides, the half-inhibitory concentration (IC50) in assay [4] fell in the range of 301 to 1000 nM.
On to `C[C@H](Cc1nncn1C)c1cccc(N2Cc3c(Br)cccc3C2=O)c1` [Compound 256, (R)-4-bromo-2-(3-(1-(4-methyl-4H-1,2,4-triazol-3-yl)propan-2-yl)phenyl)isoindolin-1-one], for which, in assay [1], the fold induction at 0.3 µM lay in the range of 1.01 to 1.3, the fold induction at 1 µM was 1.31 to 1.5 and the fold induction at 4 µM was 1.51 to 1.75. The compound also came in with a Kd in assay [2] of 100 to 300 nM. Besides, in assay [3], the IC50 is at most 500 nM. Also, the 50% inhibitory concentration (IC50) in assay [4] was 100 to 300 nM.
Consider `C[C@H](Cc1nncn1C)c1cccc(N2Cc3c(ccnc3C3CC3)C2=O)c1` [Compound 257, 4-cyclopropyl-2-[3-[(1R)-1-methyl-2-(4-methyl-1,2,4-triazol-3-yl)ethyl]phenyl]-3H-pyrrolo[3,4-c]pyridin-1-one], for which, in assay [1], the fold induction at 0.3 µM was in the range of 1.01 to 1.3, the fold induction at 1 µM lay within 1.01 to 1.3 and the fold induction at 4 µM was 1.31 to 1.5. The dissociation constant (Kd) in assay [2] was in the range of 301 to 1000 nM. Further, the 50% inhibitory concentration (IC50) in assay [3] was at most 500 nM. Further, in assay [4], the IC50 was 100 to 300 nM.
Consider `C[C@H](Cc1nncn1C)c1cccc(N2Cc3c(ccnc3C3CCC3)C2=O)c1` [Compound 258, (R)-4-cyclobutyl-2-(3-(1-(4-methyl-4H-1,2,4-triazol-3-yl)propan-2-yl)phenyl)-2,3-dihydropyrrolo[3,4-c]pyridin-1-one], for which, in assay [1], the fold induction at 0.3 µM was below 1, the fold induction at 1 µM is 1.01 to 1.3 and the fold induction at 4 µM lay within 1.01 to 1.3. The compound also had an equilibrium dissociation constant (Kd) in assay [2] of 3000 to 10000 nM. For the same compound, the IC50 in assay [3] was at most 500 nM. Moreover, the 50% inhibitory concentration (IC50) in assay [4] lay within 100 to 300 nM.
For the compound `C[C@H](Cc1nnc[nH]1)c1cccc(N2Cc3c(cccc3C(F)(F)F)C2=O)c1` [Compound 262, (R)-2-(3-(1-(4H-1,2,4-triazol-3-yl)propan-2-yl)phenyl)-4-(trifluoromethyl)isoindolin-1-one], in assay [1], the fold induction at 0.3 µM is 1.01 to 1.3, the fold induction at 1 µM was 1.31 to 1.5 and the fold induction at 4 µM was in the range of 1.31 to 1.5. The dissociation constant Kd in assay [2] is 301 to 1000 nM. For the same compound, the half-maximal inhibitory concentration (IC50) in assay [3] is at most 500 nM. The IC50 in assay [4] lay in the range of 301 to 1000 nM.
`C[C@H](Cc1nncn1C1CC1)c1cccc(N2Cc3c(cccc3C(F)(F)F)C2=O)c1` [Compound 265, (R)-2-(3-(1-(4-cyclopropyl-4H-1,2,4-triazol-3-yl)propan-2-yl)phenyl)-4-(trifluoromethyl)isoindolin-1-one]: in assay [1], the fold induction at 0.3 µM is 1.01 to 1.3, the fold induction at 1 µM fell in the range of 1.01 to 1.3 and the fold induction at 4 µM was in the range of 1.01 to 1.3. The same compound yielded a Kd in assay [2] of 3000 to 10000 nM. The 50% inhibitory concentration (IC50) in assay [3] was at most 1000 nM. The concentration for half-maximal inhibition (IC50) in assay [4] was 301 to 1000 nM.
As to `Cc1[nH]cnc1CC(C)c1cccc(N2Cc3c(cccc3C(F)(F)F)C2=O)c1` (stereo not drawn) [Compound 272, 2-[3-[1-(5-methyl-1H-imidazol-4-yl)propan-2-yl]phenyl]-4-(trifluoromethyl)isoindolin-1-one], in assay [1], the fold induction at 0.3 µM is below 1, the fold induction at 1 µM is below 1 and the fold induction at 4 µM was in the range of 1.01 to 1.3. In addition, the dissociation constant (Kd) in assay [2] fell in the range of 3000 to 10000 nM. In addition, in assay [3], the IC50 was at most 500 nM. The half-maximal inhibitory concentration (IC50) in assay [4] was 301 to 1000 nM.
Turning to `C[C@H](Cc1nncn1C)c1cc(F)cc(N2Cc3c(cccc3C(F)(F)F)C2=O)c1` [Compound 281a, 2-[3-Fluoro-5-[(1R)-1-methyl-2-(4-methyl-1,2,4-triazol-3-yl)ethyl]phenyl]-4-(trifluoromethyl)isoindolin-1-one], in assay [1], the fold induction at 0.3 µM is 1.01 to 1.3, the fold induction at 1 µM was in the range of 1.01 to 1.3 and the fold induction at 4 µM was 1.31 to 1.5. Further, the Kd in assay [2] was 100 to 300 nM. Further, in assay [3], the IC50 is at most 500 nM. The concentration for half-maximal inhibition (IC50) in assay [4] is 100 to 300 nM.
On to `Cn1cnnc1[C@@H]1C[C@@H]1c1cccc(N2Cc3c(cccc3C(F)(F)F)C2=O)c1` [Compound 282, 2-(3-((1S,2R)-2-(4-methyl-4H-1,2,4-triazol-3-yl)cyclopropyl)phenyl)-4-(trifluoromethyl)isoindolin-1-one], for which, in assay [1], the fold induction at 0.3 µM is above 1.76, the fold induction at 1 µM was above 1.76 and the fold induction at 4 µM was above 1.76. The same compound gave a dissociation constant (Kd) in assay [2] of 301 to 1000 nM. For the same compound, the half-inhibitory concentration (IC50) in assay [3] is at most 500 nM. Also, the 50% inhibitory concentration (IC50) in assay [4] is 301 to 1000 nM.
For `Cn1cnnc1[C@@H]1CC[C@@H]1c1cccc(N2Cc3c(cccc3C(F)(F)F)C2=O)c1` [Compound 283b, 2-(3-((1S,2R)-2-(4-methyl-4H-1,2,4-triazol-3-yl)cyclobutyl)phenyl)-4-(trifluoromethyl)isoindolin-1-one], in assay [1], the fold induction at 0.3 µM fell in the range of 1.01 to 1.3, the fold induction at 1 µM was 1.01 to 1.3 and the fold induction at 4 µM is 1.01 to 1.3. The same compound displayed a Kd in assay [2] of 301 to 1000 nM. For the same compound, the IC50 in assay [3] is at most 500 nM. For the same compound, in assay [4], the IC50 lay within 301 to 1000 nM.
With `Cc1ccc(C(=O)Nc2cccc(C(C)C(F)(F)c3nncn3C)c2)nc1C1CC1` (stereo not drawn) [Compound 286, 6-cyclopropyl-N-(3-(1,1-difluoro-1-(4-methyl-4H-1,2,4-triazol-3-yl)propan-2-yl)phenyl)-5-methylpicolinamide], in assay [1], the fold induction at 0.3 µM is below 1, the fold induction at 1 µM was below 1 and the fold induction at 4 µM is 1.01 to 1.3. In addition, the Kd in assay [2] fell in the range of 301 to 1000 nM. In addition, the concentration for half-maximal inhibition (IC50) in assay [3] was at most 500 nM. For the same compound, the 50% inhibitory concentration (IC50) in assay [4] lay in the range of 100 to 300 nM.
Consider `Cn1cnnc1C[C@](C)(F)c1cccc(N2Cc3c(cccc3C(F)(F)F)C2=O)c1` [Compound 298b, (S)-2-(3-(2-fluoro-1-(4-methyl-4H-1,2,4-triazol-3-yl)propan-2-yl)phenyl)-4-(trifluoromethyl)isoindolin-1-one], for which, in assay [1], the fold induction at 0.3 µM was 1.01 to 1.3, the fold induction at 1 µM was below 1 and the fold induction at 4 µM lay in the range of 1.01 to 1.3. Moreover, the Kd in assay [2] was 100 to 300 nM. In addition, the half-maximal inhibitory concentration (IC50) in assay [3] is at most 500 nM. For the same compound, in assay [4], the half-inhibitory concentration (IC50) was 100 to 300 nM.
With `C[C@H](Cc1nncn1C)c1ccnc(NC(=O)c2cccc(C(F)(F)F)n2)c1` [Compound 302, (R)-N-(4-(1-(4-methyl-4H-1,2,4-triazol-3-yl)propan-2-yl)pyridin-2-yl)-6-(trifluoromethyl)picolinamide], in assay [1], the fold induction at 0.3 µM is 1.01 to 1.3, the fold induction at 1 µM lay in the range of 1.01 to 1.3 and the fold induction at 4 µM was in the range of 1.01 to 1.3. In addition, the Kd in assay [2] lay in the range of 1000 to 3000 nM. The concentration for half-maximal inhibition (IC50) in assay [3] was at most 1000 nM. Besides, the half-inhibitory concentration (IC50) in assay [4] is 301 to 1000 nM.
Consider `C[C@H](Cc1nncn1C)c1ccnc(N2Cc3c(cccc3C(F)(F)F)C2=O)c1` [Compound 304b, (R)-2-(4-(1-(4-methyl-4H-1,2,4-triazol-3-yl)propan-2-yl)pyridin-2-yl)-4-(trifluoromethyl)isoindolin-1-one], for which, in assay [1], the fold induction at 0.3 µM lay in the range of 1.01 to 1.3, the fold induction at 1 µM was in the range of 1.01 to 1.3 and the fold induction at 4 µM fell in the range of 1.31 to 1.5. The dissociation constant (Kd) in assay [2] lay within 1000 to 3000 nM. In assay [3], the IC50 was at most 500 nM. The IC50 in assay [4] was in the range of 301 to 1000 nM.
In the case of `C[C@H](Cc1nncn1C)c1cccc(NC(=O)c2nc(C(F)(F)F)c[nH]2)c1` [Compound 326, (R)-N-(3-(1-(4-methyl-4H-1,2,4-triazol-3-yl)propan-2-yl)phenyl)-4-(trifluoromethyl)-1H-imidazole-2-carboxamide], in assay [1], the fold induction at 0.3 µM lay within 1.01 to 1.3, the fold induction at 1 µM lay in the range of 1.01 to 1.3 and the fold induction at 4 µM is 1.01 to 1.3. The compound also returned a dissociation constant Kd in assay [2] of 100 to 300 nM. Further, the IC50 in assay [3] is at most 300 nM. For the same compound, the IC50 in assay [4] lay within 100 to 300 nM.
